Data published in US7192940B2, “Ether compounds” (Esperion Therapeutics, Inc., priority 1999, dated 2007).

Experiments:
obese female Zucker rats [1] = assay: Experiments B, C, D & E: serum lipids, glucose, insulin, body and liver weight in obese female Zucker rats treated for 14 days; assay type: in vivo, rat; conditions: Experiment C
Protocol: In a number of different experiments, illustrative compounds of the invention and troglitazone were administered daily at various doses to 10-week old chow fed obese female Zucker rats for 14 days in the morning by oral gavage in 1.5% carboxymethylcellulose/0.2% Tween-20 (dosing vehicle). Animals were weighed daily. Animals were allowed free access to rodent chow and water throughout the study. Blood glucose was determined after a 6-hour fast in the afternoon without anesthesia from a tail vein. Serum was also prepared from a blood sample subsequently obtained from the orbital venous plexus (with O2/CO2 anesthesia) prior to and after one week treatment and used lipid and insulin determinations. At two weeks, blood glucose was again determined after a 6-hour fast without anesthesia from a tail vein. Soon thereafter, animals were sacrificed by CO2 inhalation in the evening and cardiac blood serum was collected and assessed for various lipids and insulin. Body weight was determined daily prior to dosing and at the time of euthanasia.

obese female Zucker rats [2] = assay: Experiment A: serum lipids, glucose, non-esterified fatty acids and weight gain in obese female Zucker rats after seven days of oral treatment; assay type: in vivo, rat; conditions: vehicle 6.6%
Protocol: Dosing vehicle, Compound A (86 mg/kg of body weight) or troglitazone (120 mg/kg of body weight) was administered to eight week old female obese Zucker rats daily for seven days in the morning by oral gavage in 1.5% carboxymethylcellulose/0.2% Tween-20. Troglitazone was obtained commercially. Finely crushed tablets were suspended in vehicle for dosing. Orbital blood samples were obtained following a six-hour fast prior to the initial dose and also following the seventh dose.
Blood serum was assayed for total cholesterol and triglycerides (FIG. 5), lipoprotein cholesterol profiles (FIG. 6), VLDL plus LDL cholesterol combined (also referred to as apo B containing lipoprotein cholesterol or non-HDL cholesterol), HDL cholesterol, and the ratio of HDL cholesterol to that of VLDL plus LDL cholesterol (FIG. 7), serum glucose, and non-esterified fatty acids (FIG. 8), and percent weight gain (FIG. 9). […] In particular, Compound A caused a marked elevation in HDL cholesterol after one week of treatment. Using the serum total cholesterol values (FIG. 5A) and the lipoprotein cholesterol distribution (FIG. 6), the amount of cholesterol associated with non-HDL (i.e., VLDL plus LDL) and HDL were determined (FIG. 7). […] In contrast, troglitazone reduced non-HDL and HDL cholesterol by 67% and 4%, respectively.

[3] = tested on: LDL receptor deficient mice; assay: Lipoprotein cholesterol profile in LDL receptor-deficient mice; assay type: in vivo; conditions: 300 mg/kg/day; one week; chow-fed female mice
From the text: The effect of Compound A on LDL levels in a murine model of homozygous familial hypercholesterolemia (Ishibashi et al., 1993, J. Clin. Invest. 92:883–893; Ishibashi et al., 1994, J. Clin. Invest. 93:1885–1893) was studied. LDL receptor-deficient mice have elevated LDL cholesterol relative to wild type mice when fed a chow diet. When fed cholesterol-enriched diets, these mice develop atherosclerosis.

male Sprague-Dawley rats = assay: Serum lipids, apolipoproteins and weight gain in chow-fed male Sprague-Dawley rats after seven days of oral treatment; assay type: in vivo, rat; conditions: 100 mg/kg, 7 days, vs vehicle
Protocol: Illustrative compounds of the invention were administered daily at a dose of 100 mg/kg to chow fed male Sprague-Dawley rats for seven days in the morning by oral gavage in 1.5% carboxymethylcellulose/0.2% Tween-20 (dosing vehicle). Animals were weighed daily. Animals were allowed free access to rodent chow and water throughout the study. After the seventh dose, animals were sacrificed in the evening and blood serum was assayed for lipoprotein cholesterol profiles, serum triglycerides, total cholesterol VLDL, LDL, and HDL cholesterol, and the ratio of HDL cholesterol to that of VLDL plus LDL cholesterol, apolipoproteins A-I, C-II, C-III, and E by immunoelectrophoresis, and percent weight gain.
The five compounds were tested in two separate experiments. In each experiment, the experimental data were normalized against a control group of rats which received the dosing vehicle alone.

primary rat hepatocytes = assay: Synthesis of non-saponified and saponified lipids (14C-acetate incorporation) in hepatocytes; assay type: cell-based; conditions: 100 μM; 2 hr 14C-acetate labeling; vs no compound control
Protocol: A male Sprague-Dawley rat was anesthetized by administration of sodium pentobarbitol by intraparitoneal injection at 50 mg/kg. In situ perfusion of the liver was performed as follows. […] To digest the liver, DSC solution (6.7 mM KCl, 143 mM NaCl, 9.2 mM Na HEPES, 5 mM CaCl2—2H2O, 1.7 mM Fructose, 0.029 mM Phenol red, 0.2% BSA, 100 U/ml collagenase Type I, 93 U/ml Hyaluronidase, 160 BAEE/ml trypsin inhibitor, pH 7.5) was perfused through the liver at a flow rate of 30 ml/min for 6 minutes at a temperature of 37° C. After digestion, cells were dispersed in a solution of DMEM− (DMEM containing 2 mM GlutMax-1, 0.2% BSA, 5% FBS, 12 nM insulin, 1.2 μM hydrocortisone) to stop the digestion process. The crude cell suspension was filtered through three layers of stainless steel mesh with pore sizes of 250, 106, and 75 μm respectively. Filtered cells were centrifuged at 50×g for two minutes and the supernatant discarded. The resulting cell pellet was resuspended in DMEM and centrifuged again. This final cell pellet was resuspended in DMEM+HS solution (DMEM containing 2 mM GlutMax-1, 20 nM delta-aminolevulinic acid, 17.4 mM MEM non-essential amino acids, 20% FBS, 12 nM insulin, 1.2 μM hydrocortisone) and plated to form monolayer cultures at a density of 100×10^3 cells/cm^2 on collagen coated culture dishes. […]

CC(C)(CO)CCCCOCCCCC(C)(C)CO [Compound A, 6-(6-hydroxy-5,5-dimethylhexyloxy)-2,2-dimethyl-hexan-1-ol]
glucose to insulin ratio (obese female Zucker rats [1]; 100 mg/kg): reduced | blood glucose (obese female Zucker rats [1]; 100 mg/kg, fasted): tendency to lower blood glucose | decline of glucose to insulin ratio (obese female Zucker rats [1]; 1 and 3 mg/kg, over two weeks (same as control)): ⅓ to ½ | weight gain (obese female Zucker rats [1]; 10, 30 and 100 mg/kg, after one and two weeks): markedly reduced | glucose to insulin ratio (obese female Zucker rats [1]; 10 and 30 mg/kg): sustained at pretreatment levels | sharp rise in serum insulin (obese female Zucker rats [1]; higher doses (above 3 mg/kg)): largely curtailed or minimized | increase in body weight (obese female Zucker rats [2]; 86 mg/kg): 5.4% | HDL [3]: HDL elevation | LDL cholesterol [3]: rapid and significant reduction | change in VLDL cholesterol (male Sprague-Dawley rats): no change

CC(C)(CCCOCCCC(C)(C)OP(=O)(OCc1ccccc1)OCc1ccccc1)OP(=O)(OCc1ccccc1)OCc1ccccc1 [Compound E, phosphoric acid dibenzyl ester 4-(4-(bis-benzyloxy-phosphoryloxy)-4-methyl-pentyloxy)-1,1-dimethyl-butyl ester]
rates of saponified fatty acid synthesis (primary rat hepatocytes): reduced

CC(C)(O)CCCCOCCCCC(C)(C)O [Compound F, 6-(5-hydroxy-5-methyl-hexyloxy)-2-methyl-hexan-2-ol]
rates of saponified fatty acid synthesis (primary rat hepatocytes): reduced

Cc1c(C)c2c(c(C)c1O)CCC(C)(COc1ccc(CC3SC(=O)NC3=O)cc1)O2 (stereo not drawn) [troglitazone, reference compound]
weight gain (obese female Zucker rats [1]; after two weeks at 12, 40 and 120 mg/kg, after one week at 120 mg/kg): increased weight gain | percent liver to body weight (obese female Zucker rats [1]; after two weeks, doses 12, 40, 120 mg/kg (FIG. 16)): reduced at all doses | weight gain (obese female Zucker rats [2]; 120 mg/kg): +11.6%
